Reference: patent publication US9247759B2, “Identification of human T2R receptors that respond to bitter compounds that elicit the bitter taste in compositions, and the use thereof in assays to identify compounds that inhibit (block) bitter taste in compositions and use thereof” (SENOMYX, INC., priority 2007, dated 2016)
Like-named read-outs stand apart in the source and are kept apart here.

Columns and labels:
hT2R64 = hT2R64 (Homo sapiens (Human), UniProt P59538); assay: hT2R panel inhibition, transient HEK293 G16g44, agonist Aristolochic Acid 1 μM; type: cell-based; conditions: HEK293, compound at 25 μM; receptor activated to EC80 with the corresponding agonist; read-out: screening result against bitter receptor 64
Protocol: (§1) Specifically, in order to evaluate the inhibitory selectivity of the Compound C compound, this compound was tested against 22 human T2Rs which were deorphaned by Senomyx. These receptors and the bitter ligands that activate these human T2Rs are reported in earlier patent applications which are incorporated by reference herein. These 22 human T2Rs are hT2R1, 3, 4, 5, 7, 8, 9, 10, 13, 14, 16, 44, 51, 54, 55, 61, 63, 64, 65, 67, 71 and 75. The amino acid and nucleic acid sequences of all of these T2Rs may be found in these earlier patent applications. These human T2Rs were each individually transiently transfected into HEK293 cells that stably express the promiscuous G protein G16g44 and functional assays were effected using these receptors as disclosed in these same patent applications. […] The ligands were used at EC80 concentration levels. The list of bitter ligands utilized and the tested ligand concentrations are contained in Table 5 of this example.
(§2) Relating to the foregoing, FIG. 5 contains experimental results wherein Compound C was tested with different agonist compounds. The inhibition activity is represented by the reduction of receptor activity in the presence of Compound C. […] These 13 hT2Rs are hT2R3, 7, 10, 14, 16, 44, 51, 55, 61, 63, 64, 65, and 71.

hT2R61 = hT2R61 (Homo sapiens (Human), UniProt P59537); assay: hT2R panel inhibition, transient HEK293 G16g44, agonist Aristolochic Acid 25 nM; type: cell-based; conditions: HEK293, compound at 25 μM
Protocol: as §1, §2

hT2R63 = assay: hT2R panel inhibition, transient HEK293 G16g44, agonist Caffeine 1 mM or Andrographolide 100 μM; type: cell-based, human; conditions: compound at 25 μM; for screening result against bitter receptor 63: receptor activated to EC80 with the corresponding agonist
Protocol: as §1, §2

hT2R14 [1] = target: T1, hT2R14 (Homo sapiens (Human), UniProt Q9NYV8); assay: hT2R panel inhibition, transient HEK293 G16g44, agonist Aristolochic Acid 2 μM; type: cell-based; conditions: HEK293, compound at 25 μM
Protocol: as §1

hT2R16 = hT2R16 (Homo sapiens (Human), UniProt Q9NYV7); assay: hT2R panel inhibition, transient HEK293 G16g44, agonist Salicin 1 mM; type: cell-based; conditions: HEK293, compound at 25 μM; receptor activated to EC80 with the corresponding agonist; read-out: screening result against bitter receptor 16
Protocol: as §1, §2

hT2R44 = assay: hT2R panel inhibition, transient HEK293 G16g44, agonist Denatonium 0.5 μM; type: cell-based, human; conditions: compound at 25 μM; for screening result against bitter receptor 44: receptor activated to EC80 with the corresponding agonist
Protocol: as §1, §2

hT2R10 = hT2R10 (Homo sapiens (Human), UniProt Q9NYW0); assay: hT2R panel inhibition, transient HEK293 G16g44, agonist Strychnine 50 μM; type: cell-based; conditions: HEK293, read-out: screening result against bitter receptor 10, compound at 25 μM; receptor activated to EC80 with the corresponding agonist
Protocol: as §1, §2

hT2R55 = assay: hT2R panel inhibition, transient HEK293 G16g44, agonist Cinchonine 150 μM; type: cell-based, human; conditions: compound at 25 μM; receptor activated to EC80 with the corresponding agonist
Protocol: as §1, §2

hT2R3 = hT2R3 (Homo sapiens (Human), UniProt Q9NYW6); assay: hT2R panel inhibition, transient HEK293 G16g44, agonist Chloroquine pH6.5 50 μM; type: cell-based; conditions: HEK293, compound at 25 μM; receptor activated to EC80 with the corresponding agonist; read-out: screening result against bitter receptor 3
Protocol: as §1, §2

hT2R71 = hT2R71 (Homo sapiens (Human), UniProt P59536); assay: hT2R panel inhibition, transient HEK293 G16g44, agonist Picric Acid 10 μM; type: cell-based; conditions: HEK293, compound at 25 μM
Protocol: as §1, §2

hT2R5 = hT2R5 (Homo sapiens (Human), UniProt Q9NYW4); assay: hT2R panel inhibition, transient HEK293 G16g44, agonist Picoline 10 mM; type: cell-based; conditions: HEK293, compound at 25 μM; receptor activated to EC80 with the corresponding agonist; read-out: screening result against bitter receptor 5
Protocol: as §1, §2

hT2R65 = assay: hT2R panel inhibition, transient HEK293 G16g44, agonist Oleuropein 1 mM; type: cell-based, human; conditions: compound at 25 μM; receptor activated to EC80 with agonist
Protocol: as §1, §2

hT2R14 [2] = target: T1, hT2R14; assay: hT2R14 antagonist high-throughput FLIPR assay, stable cell line with G16g44, agonist aristolochic acid; type: cell-based
Outline: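 HEK293 cells stably expressing hT2R14 with chimeric G16g44 were stimulated with aristolochic acid (3 μM), giving 70-80% of maximal receptor activity. Test compounds were added together with the agonist, and antagonism was read as fluorescent calcium signal on FLIPR.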

[3] = receptor activated to EC80 with the corresponding agonist, read-out: screening result against bitter receptor 61
[4] = receptor activated to EC80 with the corresponding agonist, read-out: screening result against bitter receptor 14
[5] = receptor activated to EC80 with the corresponding agonist, read-out: screening result against bitter receptor 71
[6] = receptor activated to EC80 with agonist

Chain of hT2R71 (P59536 whole entry): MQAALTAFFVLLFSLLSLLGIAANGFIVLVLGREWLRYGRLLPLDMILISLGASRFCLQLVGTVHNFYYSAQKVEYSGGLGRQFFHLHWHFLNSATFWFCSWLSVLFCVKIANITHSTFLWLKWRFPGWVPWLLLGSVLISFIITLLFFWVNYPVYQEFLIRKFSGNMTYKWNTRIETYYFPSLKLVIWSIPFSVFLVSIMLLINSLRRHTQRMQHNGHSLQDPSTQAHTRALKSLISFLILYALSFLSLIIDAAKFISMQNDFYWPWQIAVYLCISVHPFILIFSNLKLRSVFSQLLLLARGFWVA
T1 sequence (Q9NYV8 whole entry): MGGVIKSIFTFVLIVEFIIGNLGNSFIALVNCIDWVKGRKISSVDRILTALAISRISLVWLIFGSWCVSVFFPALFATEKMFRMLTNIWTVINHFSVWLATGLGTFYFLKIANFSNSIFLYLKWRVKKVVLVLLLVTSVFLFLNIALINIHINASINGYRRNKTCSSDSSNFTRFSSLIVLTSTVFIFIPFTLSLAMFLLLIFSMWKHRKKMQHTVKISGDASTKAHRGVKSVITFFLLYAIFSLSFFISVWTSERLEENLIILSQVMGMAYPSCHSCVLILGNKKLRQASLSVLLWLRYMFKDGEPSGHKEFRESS
Chain of hT2R61 (P59537 whole entry): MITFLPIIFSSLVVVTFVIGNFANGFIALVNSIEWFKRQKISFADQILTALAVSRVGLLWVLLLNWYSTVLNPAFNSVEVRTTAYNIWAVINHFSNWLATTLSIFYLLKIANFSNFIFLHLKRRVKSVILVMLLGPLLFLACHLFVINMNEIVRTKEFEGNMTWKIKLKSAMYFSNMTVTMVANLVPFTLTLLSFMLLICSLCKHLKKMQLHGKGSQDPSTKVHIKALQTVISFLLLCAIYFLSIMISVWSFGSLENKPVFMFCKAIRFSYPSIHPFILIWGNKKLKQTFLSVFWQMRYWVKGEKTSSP
Chain of hT2R3 (Q9NYW6 whole entry): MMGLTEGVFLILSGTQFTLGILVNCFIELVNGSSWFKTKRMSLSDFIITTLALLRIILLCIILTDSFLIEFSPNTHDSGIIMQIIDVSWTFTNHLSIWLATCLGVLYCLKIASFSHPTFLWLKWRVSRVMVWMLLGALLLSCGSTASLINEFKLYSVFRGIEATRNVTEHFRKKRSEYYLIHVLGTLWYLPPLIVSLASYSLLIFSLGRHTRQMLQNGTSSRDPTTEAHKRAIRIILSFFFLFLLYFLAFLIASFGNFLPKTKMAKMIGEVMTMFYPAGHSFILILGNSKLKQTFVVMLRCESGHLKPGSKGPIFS
Chain of hT2R64 (P59538 whole entry): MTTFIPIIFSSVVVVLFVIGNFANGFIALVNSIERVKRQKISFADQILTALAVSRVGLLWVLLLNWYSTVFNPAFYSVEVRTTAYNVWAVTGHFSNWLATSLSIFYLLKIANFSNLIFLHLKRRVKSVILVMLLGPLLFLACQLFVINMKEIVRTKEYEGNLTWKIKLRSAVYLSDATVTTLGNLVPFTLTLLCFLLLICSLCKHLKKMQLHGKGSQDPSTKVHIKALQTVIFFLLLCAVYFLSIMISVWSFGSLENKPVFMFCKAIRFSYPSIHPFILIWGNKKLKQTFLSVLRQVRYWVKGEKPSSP
Chain of hT2R16 (Q9NYV7 whole entry): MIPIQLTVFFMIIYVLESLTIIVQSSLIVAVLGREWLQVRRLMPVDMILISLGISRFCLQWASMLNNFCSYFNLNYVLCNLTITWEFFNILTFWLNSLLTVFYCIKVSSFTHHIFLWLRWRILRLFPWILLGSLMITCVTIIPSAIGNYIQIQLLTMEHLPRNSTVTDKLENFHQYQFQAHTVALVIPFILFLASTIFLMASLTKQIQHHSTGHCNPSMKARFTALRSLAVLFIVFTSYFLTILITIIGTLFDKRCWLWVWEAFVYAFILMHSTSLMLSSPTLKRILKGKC
Chain of hT2R5 (Q9NYW4 whole entry): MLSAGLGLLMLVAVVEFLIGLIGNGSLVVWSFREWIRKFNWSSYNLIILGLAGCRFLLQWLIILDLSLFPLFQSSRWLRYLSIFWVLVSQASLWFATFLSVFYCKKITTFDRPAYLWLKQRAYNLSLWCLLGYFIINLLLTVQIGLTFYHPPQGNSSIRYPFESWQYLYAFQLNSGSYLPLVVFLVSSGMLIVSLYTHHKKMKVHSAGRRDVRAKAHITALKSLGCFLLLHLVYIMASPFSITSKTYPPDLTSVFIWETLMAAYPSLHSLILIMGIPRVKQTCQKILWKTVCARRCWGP
Chain of hT2R10 (Q9NYW0 whole entry): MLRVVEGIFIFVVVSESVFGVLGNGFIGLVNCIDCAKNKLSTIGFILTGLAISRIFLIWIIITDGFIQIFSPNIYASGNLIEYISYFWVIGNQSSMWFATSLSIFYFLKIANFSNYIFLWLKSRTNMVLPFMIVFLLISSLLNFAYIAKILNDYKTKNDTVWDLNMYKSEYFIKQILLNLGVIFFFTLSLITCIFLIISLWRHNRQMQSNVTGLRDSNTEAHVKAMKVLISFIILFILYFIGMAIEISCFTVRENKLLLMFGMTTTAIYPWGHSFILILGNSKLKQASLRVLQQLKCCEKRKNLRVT

| SMILES | inhibition at 25 µM (hT2R64) | inhibition at 25 µM (hT2R61; [3]) | screening result against bitter receptor 63 (hT2R63) | inhibition at 25 µM (hT2R14 [1]; [4]) | screening result against bitter receptor 44 (hT2R44) | screening result against bitter receptor 55 (hT2R55) | inhibition at 25 µM (hT2R3) | inhibition at 25 µM (hT2R71; [5]) | also measured |
| --- | --- | --- | --- | --- | --- | --- | --- | --- | --- |
| COc1ccc(C(NS(=O)(=O)c2ccc(C(=O)O)cc2)c2ccccc2)cc1 (centres unmarked) [Example 5-97, 4-(N-((4-methoxyphenyl)(phenyl)methyl)sulfamoyl) benzoic acid] | 20 to 40% | 20 to 40% | +++ (60% to 80% inhibition = +++) | 20 to 40% | + (20% to 40% inhibition = +) | – | – | – | inhibition at 25 µM (hT2R16): 60 to 80% |
| COc1ccc(CN(Cc2ccccc2)S(=O)(=O)CCC(=O)O)cc1 [Example 5-57, 3-(N-benzyl-N-(4-methoxybenzyl)sulfamoyl)propanoic acid] | 40 to 60% | > 80% | – | – | – | +++ (60% to 80% inhibition = +++) | 20 to 40% | – | inhibition at 25 µM (hT2R10): 20 to 40% |
| COc1ccc(CN(Cc2ccccc2)S(=O)(=O)c2ccc(CC(=O)O)cc2)cc1 [Example 5-47, 2-(4-(N-benzyl-N-(4-methoxybenzyl)sulfamoyl)phenyl)acetic acid] | – | 60 to 80% | + (20% to 40% inhibition = +) | – | + (20% to 40% inhibition = +) | – | 20 to 40% | 20 to 40% | – |
| CN(Cc1ccccc1)S(=O)(=O)c1ccc(C(=O)O)cc1 [Example 5-55, 4-(N-benzyl-N-methylsulfamoyl)benzoic acid] | 40 to 60% | 20 to 40% | ++++ (80% or greater inhibition = ++++) | > 80% | – | ++ (40% to 60% inhibition = ++) | 20 to 40% | – | inhibition at 25 µM (hT2R5): 20 to 40% |
| Cn1c(=O)c2cc(S(=O)(=O)Nc3ccc4c(c3)OCO4)ccc2n(C)c1=O [Example 6-5, N-(benzo[d][1,3]dioxol-5-yl)-1,3-dimethyl-2,4-dioxo-1,2,3,4-tetrahydroquinazoline-6-sulfonamide] | – | – | – | – | – | – | – | – | inhibition of bitter receptor 65 (hT2R65): ++ (40% to 60% inhibition = ++); IC50 (hT2R14 [2]; Table D, read-out: hT2R14 IC50): 0.264 µM; inhibition at 25 µM (hT2R61; receptor activated to EC80 with agonist, read-out: inhibition of bitter receptor 61): 20 to 40%; inhibition at 25 µM (hT2R71; receptor activated to EC80 with agonist, read-out: inhibition of bitter receptor 71): 60 to 80%; inhibition of bitter receptor 63 (hT2R63; [6]): ++++ (80% or greater inhibition = ++++); inhibition at 25 µM (hT2R14 [1]; receptor activated to EC80 with agonist, read-out: inhibition of bitter receptor 14): > 80%; inhibition of bitter receptor 44 (hT2R44; [6]): ++ (40% to 60% inhibition = ++) |
| COc1ccc(CN(Cc2ccc(C(=O)O)cc2)S(=O)(=O)c2ccc(O)cc2)cc1 [Example 5-44, 4-((4-hydroxy-N-(4-methoxybenzyl)phenylsulfonamido)methyl)-benzoic acid] | 40 to 60% | > 80% | ++++ (80% or greater inhibition = ++++) | > 80% | ++ (40% to 60% inhibition = ++) | + (20% to 40% inhibition = +) | 20 to 40% | 40 to 60% | IC50 (hT2R14 [2]; read-out: IC50 on hT2R14 bitter receptor): 3.43 µM |
| COc1ccc(CN(Cc2ccccc2)C(=O)c2ccc(C(=O)O)cc2)cc1 [Example 5-49, 4-(benzyl(4-methoxybenzyl)carbamoyl)benzoic acid] | 40 to 60% | 60 to 80% | + (20% to 40% inhibition = +) | – | + (20% to 40% inhibition = +) | ++++ (80% or greater inhibition = ++++) | 20 to 40% | 20 to 40% | – |
| COc1ccc(CN(Cc2cccc(C)c2)S(=O)(=O)c2ccc(C(=O)O)cc2)cc1 [Example 5-65, 4-(N-(4-methoxybenzyl)-N-(3-methylbenzyl)sulfamoyl)benzoic acid] | – | – | – | – | – | – | 20 to 40% | – | – |
